Series [1] is described as follows: Pharmacokinetic assay in mouse. The class given is in vivo, ICR mice. The note with it: for pharmacokinetic properties in mouse compared with Reference compound 1 and Reference compound 2 (in words): mouse assay, vs Reference compounds 1 and 2; for AUC(0-t) / Cmax / Tmax / half-life: mouse, plasma, po, male ICR mice, intragastric administration, 10 mg/kg; for half-life: read-out: T½ (converted). As for the experimental part:
For a mouse pharmacokinetic assay, male ICR mice (20 g to 25 g) were selected and fasted overnight. Three mice were intragastrically administered with 10 mg/kg of the corresponding compound. The blood of the mice was collected before the administration and at 15 min, 30 min, 1 h, 2 h, 4 h, 8 h, and 24 h after the administration. The blood samples were centrifuged at 4° C. for 6 minutes at 6,800 g, plasma was collected and stored at −80° C.
The supernatant was mixed with 3 times the amount of water, and an appropriate amount of the mixed solution was taken for LC-MS/MS analysis. The primary pharmacokinetic parameters were analyzed by WinNonlin 7.0 software non-atrioventricular model.

A short description of series [2]: Pharmacokinetic assay in rat. The format is in vivo, SD rats. Here is the method:
For a rat pharmacokinetic assay, male SD rats (180 g to 240 g) were selected and fasted overnight. Three rats were intragastrically administered with 10 mg/kg of the corresponding compound. The blood of the rats was collected before the administration and at 15 min, 30 min, 1 h, 2 h, 4 h, 8 h, and 24 h after the administration. The blood samples were centrifuged at 4° C. for 6 minutes at 8,000 r/min, and plasma was collected and stored at −20° C. Plasma at each time point was taken, and added with 3 to 5 times the amount of an internal standard-containing acetonitrile solution to mix, and the mixture was vortex mixed for 1 minute, and centrifuged at 4° C. for 10 minutes at 13,000 r/min. The supernatant was taken and mixed with 3 times the amount of water, and an appropriate amount of the mixed solution was taken for LC-MS/MS analysis. The primary pharmacokinetic parameters were analyzed by WinNonlin 7.0 software non-atrioventricular model.

In series [3] the test system is histamine/citric acid-stimulated cough in guinea pig. Description: Efficacy test for histamine/citric acid-stimulated cough in guinea pig. The conditions noted are these: guinea pigs, nasal drops, 0.17 mg/kg to 1.5 mg/kg, histamine/citric acid stimulation. The format is in vivo. As for the experimental part: Guinea pigs were adaptively fed for 3 days to 7 days before being grouped. When the body weight of the guinea pigs reached 300 g to 400 g, they were numbered and randomly grouped.
Compounds or an excipient were administered to guinea pigs by nasal drops 0.25 hour to 24 hours before the start of the cough assessment. The administration dose of the test sample ranged from 0.17 mg/kg to 1.5 mg/kg. For the cough assessment, the guinea pigs were placed in a whole-body volume scan box for adaptation, and then, they were provided with histamine nebulization and then citric acid nebulization. […]
(§1) The experimental data was statistically analyzed by one-way ANOVA to analyze and compare data of the various groups. The statistical analysis result p<0.05 was regarded as a significant difference. The t-test was employed for difference comparison between any two.

Series [4] has as its system ATP/citric acid-stimulated cough in guinea pig. Description: Efficacy test for ATP/citric acid-stimulated cough in guinea pig. The note with it: guinea pigs, nasal drops, 0.17 mg/kg to 1.5 mg/kg, ATP/citric acid stimulation. The format is in vivo. As for the experimental part: Guinea pigs were adaptively fed for 3 days to 7 days before being grouped. When the body weight of the guinea pigs reached 300 g to 400 g, they were numbered and randomly grouped. Compounds or an excipient were administered to guinea pigs by nasal drops 0.25 hour to 24 hours before the start of the cough assessment. The administration dose of the test sample ranged from 0.17 mg/kg to 1.5 mg/kg. For the cough assessment, the guinea pigs were placed in a whole-body volume scan box for adaptation, and then provided with ATP nebulization, and a few minutes later, they were provided with citric acid nebulization. The cough times within 15 minutes and the cough latency were recorded from the beginning of citric acid nebulization.
as §1

For series [5], the target named is T1, hP2X3 receptor (Homo sapiens, UniProt P56373).
T1 construct: expressed in transfected cells
T1 sequence (P56373 1-397): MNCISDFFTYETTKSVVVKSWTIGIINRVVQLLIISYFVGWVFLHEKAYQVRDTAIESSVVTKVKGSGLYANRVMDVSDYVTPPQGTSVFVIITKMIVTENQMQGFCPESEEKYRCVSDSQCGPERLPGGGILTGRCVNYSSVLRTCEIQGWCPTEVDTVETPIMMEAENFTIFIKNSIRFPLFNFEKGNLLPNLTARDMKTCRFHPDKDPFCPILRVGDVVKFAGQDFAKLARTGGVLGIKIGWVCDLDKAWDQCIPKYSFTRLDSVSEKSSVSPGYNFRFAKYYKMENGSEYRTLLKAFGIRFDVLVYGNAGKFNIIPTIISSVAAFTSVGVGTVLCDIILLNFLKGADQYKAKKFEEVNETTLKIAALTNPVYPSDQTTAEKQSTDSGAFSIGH
Briefly: Antagonistic activity against hP2X3 receptor by FLIPR calcium flow assay. The class given is cell-based. The conditions noted are these: for IC50: human cells stably transfected with hP2X3, agonist α,β-meATP 400 nM; for antagonistic activity against hP2X3 receptor compared with Reference compound 1 (in words): vs Reference compound 1. Here is the method:
The antagonistic activity of hP2X3 antagonists against hP2X3 receptor was evaluated by means of FLIPR Calcium 4 Assay Kit (Molecular Devices, R8141) and FLIPR TETRA instrument (Molecular Devices, 0296) by detecting calcium flow signals. 24h before the experiment, human cells, which had been stably transfected with hP2X3 receptors, were plated on a 384-well plate at 2×10^5 cells/mL, with 50 μL of cell suspension per well, and the plate was cultured in an incubator (37° C., 5% CO2) for 16 h to 24 h. The test compound solution (20 to 50 mM DMSO stock solution) with a concentration of 180 times the required concentration was prepared using DMSO. The stock solution was added to the 384-well plate at 500 nL per well, supplemented with 30 μL of FLIPR Assay buffer (1×HBSS+2 mM CaCl2 20 mM HEPES containing 1.26 mM Ca^2+). The 384-well plate was shaken for 20 to 40 min to mix evenly. An agonist (α, β-meATP) with a concentration of 3 times the required concentration (required final concentration was 400 nM) was prepared with FLIPR Assay buffer, and was added to another 384-well plate at 45 μL per well. The culture plate, on which the cells were plated one day ago, was taken, the cell supernatant was sucked and discarded, each well was added with 30 μL of Dye (FLIPR® Calcium 4 Assay Kit, diluted with FLIPR buffer), and then the plate was incubated for 1h. 15 μL of compound was added to each well of cells (using FLIPR sample injector). After 15 minutes, 22.5 μL of the agonist was added to each well, and the fluorescence signal (exciting light wavelength ranging from 470 nm to 495 nm, and emission wavelength ranging from 515 nm to 575 nm) was detect. […] An inhibition effect curve of the compound was fitted on the software GraphpadPrism6, and the IC50 value was calculated.

Series [6] has as its system rat taste. Description: Taste test in rat (water vs 0.3 mM aqueous quinine solution intake). The format is in vivo, SD rats. The conditions noted are these: for Water/aqueous quinine solution (ratio of water intake to aqueous quinine solution intake): SD rats, 30 mg/kg i.p, 0.3 mM quinine, 15 min supply half an hour after administration; for interference on rat taste compared with Reference compound 1 (in words): vs positive reference compound. As for the experimental part:
SD rats were administered with the corresponding compound after 3 days of overnight water prohibition training. Each rat was supplied with 1 bottle of water and 1 bottle of 0.3 mM aqueous quinine solution half an hour after the administration. After 15 min of water supply, the bottles were removed. The intake amount of water and the intake amount of the 0.3 mM aqueous quinine solution were measured, respectively. The taste influence of the compound on SD rats was evaluated based on the difference between the intake amount of water and the intake amount of the aqueous quinine solution.

The nature of series [7]: Pharmacokinetic assay in canine. The class given is in vivo, Beagle dogs. As for the experimental part: For a canine pharmacokinetic assay, male Beagle dogs (8 kg to 10 kg) were selected and fasted overnight. Three Beagle dogs were intragastrically administered with 5 mg/kg of the corresponding compound. Another 3 Beagle dogs were intravenously administered with 1 mg/kg of the corresponding compound. The blood of the dogs was collected before the administration and at 15 min, 30 min, 1 h, 2 h, 4 h, 8 h, and 24 h after the administration. The blood samples were centrifuged at 4° C. for 6 minutes at 8,000 r/min, plasma was collected and stored at −20° C. […] The supernatant was taken and mixed with 3 times the amount of water, and an appropriate amount of the mixed solution was taken for LC-MS/MS analysis. The primary pharmacokinetic parameters were analyzed by WinNonlin 7.0 software non-atrioventricular model.

The mark [8] stands for this setting: rat, plasma, po, male SD rats, intragastric administration, 10 mg/kg.
Where [9] appears, read: dog, plasma, po, male Beagle dogs, intragastric administration, 5 mg/kg.
The mark [10] stands for this setting: dog, plasma, male Beagle dogs, intravenous administration, 1 mg/kg.

By AUC(0-t) is commonly meant exposure summed from dosing to a finite time, without extrapolation to infinity. Read a high AUC(0-t) as high exposure. As usually defined, the Cmax is the highest concentration seen after dosing. In general, Tmax refers to the time at which the peak concentration occurs. What is called IC50 is the concentration at which inhibition is half-maximal. By clearance is commonly meant the rate of elimination divided by the concentration. Low values mean inefficient removal, high ones efficient removal.

`Cc1cnc(-c2cc(O[C@@H]3CCOC3)cc(C(=O)N[C@H](C)c3cnc(C(F)(F)F)nc3)c2F)s1` [Compound I-1, 2-fluoro-3-(5-methylthiazol-2-yl)-5-(((R)-tetrahydrofuran-3-yl)oxy)-N—((R)-1-(2-(trifluoromethyl)pyrimidin-5-yl)ethyl)benzamide]: in series [1], the “pharmacokinetic properties in mouse compared with Reference compound 1 and Reference compound 2 (in words)” value is reported as “significantly improved pharmacokinetic properties”; the AUC(0-t) turned out to be 12100 ng·h/mL; the highest level (Cmax) was 1550 ng/mL; the Tmax turned out to be 2 h. Moreover, in series [1], the half-life is 2.3 h. Further, the “pharmacokinetic properties in rat compared with reference compound 1 (in words)” value in series [2] (rat model, vs reference compound 1) is reported as “improved to certain extent”. Besides, in series [2] (setting [8]), the AUC(0-t) turned out to be 5940 ng·h/mL, the Cmax amounted to 569 ng/mL and the Tmax was found to be 4 h. In addition, in series [2] (rat, plasma, po, male SD rats, intragastric administration, 10 mg/kg, read-out: T½ (converted)), the half-life was 3.61 h. Besides, in series [3], the “Average cough times within 15 min” value is listed as 10.8 and the “Cough inhibition rate vs. solvent” value turned out to be 59.4%. Besides, in series [4], the “Average cough times within 15 min” value amounted to 6.5 and the “Cough inhibition rate vs. solvent” value was determined as 67.2%. In series [5], the IC50 was found to be 83 nM and the “antagonistic activity against hP2X3 receptor compared with Reference compound 1 (in words)” value is reported as “better antagonistic activity”. In series [6], the “Water/aqueous quinine solution (ratio of water intake to aqueous quinine solution intake)” value worked out at 18.2 and the “interference on rat taste compared with Reference compound 1 (in words)” value was “significantly less interference on rat taste”.
For the molecule `Cc1cnc(-c2cc(O[C@H](C)[C@@H](C)O)cc(C(=O)N[C@H](C)c3cnc(C(F)(F)F)nc3)c2F)s1` [Compound I-30, 2-fluoro-5-(((2R, 3R)-3-hydroxybutan-2-yl)oxy)-3-(5-methylthiazol-2-yl)-N—((R)-1-(2-(trifluoromethyl)pyrimidin-5-yl)ethyl)benzamide], the “half-life (in words)” value in series [7] (canine) is “long half-life”. Also, in series [7] (canine, intravenous administration), the “clearance rate (in words)” value is “low clearance rate”. Moreover, the “exposure (in words)” value in series [7] (canine, oral and intravenous administrations) is “high exposure”. Also, in series [7] (canine, vs reference compound), the “pharmacokinetic characteristics compared with the reference compound (in words)” value is listed as “better pharmacokinetic characteristics”. For the same molecule, in series [7] (setting [9]), the AUC(0-t) stood at 12600 ng·h/mL, the peak concentration (Cmax) is 1030 ng/mL, the Tmax is 1 h and the half-life is 13.4 h. For the same molecule, in series [7] (setting [10]), the AUC(0-t) turned out to be 2820 ng·h/mL, the clearance was 4.33 mL/min/kg and the half-life is 13 h. Moreover, in series [7] (dog, plasma, male Beagle dogs, intravenous administration, 1 mg/kg, read-out: Vz), the Vd came out at 4.88 L/kg. In addition, in series [1], the “pharmacokinetic properties in mouse compared with Reference compound 1 and Reference compound 2 (in words)” value is given as “significantly improved pharmacokinetic properties”; the AUC(0-t) is 13800 ng·h/mL; the concentration peaked (Cmax) at 2950 ng/mL; the Tmax is 1 h. In addition, the half-life in series [1] was 2.35 h. In series [3], the “Average cough times within 15 min” value came to 9.8 and the “Cough inhibition rate vs. solvent” value is given as 63.2%. Also, in series [4], the “Average cough times within 15 min” value is listed as 7.1 and the “Cough inhibition rate vs. solvent” value is 64.1%. For the same molecule, in series [5], the half-inhibitory concentration (IC50) came to 48 nM and the “antagonistic activity against hP2X3 receptor compared with Reference compound 1 (in words)” value is on record as “better antagonistic activity”. Moreover, in series [6], the “Water/aqueous quinine solution (ratio of water intake to aqueous quinine solution intake)” value was determined as 22.9 and the “interference on rat taste compared with Reference compound 1 (in words)” value is given as “significantly less interference on rat taste”.

The values above are taken from patent US20230227445A1, “BENZAMIDE COMPOUND AND USE THEREOF” (HUMANWELL HEALTHCARE (GROUP) CO., LTD., priority 2020, published 2023).
